Assay [1] concerns experimental autoimmune neuritis (EAN) rat model. Description: Preventive administration, pain threshold of EAN rat model. Format: in vivo. Conditions: preventive continuous administration into the subarachnoid space by Micro Infusion Pump from immunization with P2 peptide-adjuvant; male LEW/CrlCrlj rat; FIG. 2. The source says:
(§1) The effect of P2X4 receptor antagonist on neuropathic pain was examined using an experimental autoimmune neuritis (EAN) rat model (Examples 3 and 4), which has been used as an experimental model for Guillain-Barré syndrome ([…]).
Six-week-old male LEW/CrlCrlj rat was acclimatized for about one week, and an indwelling polystyrene catheter with a 0.30 mm outside diameter was placed into the subarachnoid space. Three days or more after indwelling of the catheter for administration into the subarachnoid space, the rat was anesthetized with isoflurane, and an adjuvant or P2 peptide-adjuvant solution was administered by intradermal tale base injection in an amount of 80 μg/80 μL/rat. The compound A was continuously administered by Micro Infusion Pump (Primetech). The pump was placed at the same time of administration of P2 peptide-adjuvant.

Assay [2] has the same test system. The experiment in a line: Therapeutic administration, pain threshold of EAN rat model. The class given is in vivo. The settings on record: therapeutic administration into the subarachnoid space from thirteen days after immunization (average manifestation score 2 or more); male LEW/CrlCrlj rat; FIG. 3.
Source text: as §1
Six-week-old male LEW/CrlCrlj rat was acclimatized for about one week, and an indwelling polystyrene catheter with a 0.30 mm outside diameter was placed into the subarachnoid space. Three days or more after indwelling of the catheter for administration into the subarachnoid space, the rat was anesthetized with isoflurane, and an adjuvant or P2 peptide-adjuvant solution was administered by intradermal tale base injection in an amount of 80 μg/80 μL/rat. Micro Infusion Pump was simultaneously placed into the back of the rat, and administration of the vehicle into the subarachnoid space was initiated. After immunization, symptom was observed (Table 2), and change of pain threshold was observed.

Take `O=C1CC(=O)N(c2cccc(-c3nnn[nH]3)c2)c2ccc3ccccc3c2N1.[K]` [Compound A, 5-[3-(1H-tetrazol-5-yl)phenyl]-1H-naphtho[1,2-b][1,4]diazepine-2,4(3H,5H)-dione potassium salt]: the “influence on pain threshold (allodynia)” value in assay [1] is “suppress pains in initial and later manifestations of the disease”. In assay [2], the “influence on pain threshold (analgesic effect)” value is “significant analgesic effect on pain in later manifestation of the disease”.

These data come from US20190046539A1, “PROPHYLACTIC OR THERAPEUTIC AGENT FOR NEUROPATHIC PAIN ASSOCIATED WITH GUILLAIN-BARRE SYNDROME” (KYUSHU UNIVERSITY, priority 2011, published 2019).
